Measurements from US6190849A, “Photographic element containing ballasted tetrazole derivative and inhibitor releasing coupler” (priority 1999, dated 2001).

Tests used:
[1] = Contrast (gamma) reduction by DI(A)R in single layer film element, C-41 process; conditions: DIR at 0.055 mmol/m^2, relative to non-inhibitor containing check; KODAK FLEXICOLOR (C-41)
Text: The mild inhibitor fragments that are used in this invention are defined as those that cause less than a 45% gamma reduction, or more preferably less than a 40% gamma reduction, relative to a non-inhibitor containing check when coated as the following single layer film element on a cellulose triacetate film support (coverages are in g/m^2): […]
Overcoat Gelatin at 2.79 and 0.02 bis-vinylsulfonemethylether
Imaging Layer Gelatin at 2.79
Magenta Image Coupler M-1 (dispersed at 80% by
weight in tricresyl phosphate and 20% by weight
N,N-dibutyl-2-butoxy-5-t-octylaniline) at 0.692
DIR being tested at 0.055 mmol/m^2 (dispersed in twice
its weight in N,N-dibutyllauramide)
Green sensitized AgBrI at 1.08
Samples of each element were given a stepped exposure and processed in the KODAK FLEXICOLOR (C-41) process as described in British Journal of Photography Annual, 1988, pp 196-198. Contrast of the elements was determined using the maximum slope between any two density points.

[2] = Interimage in bilayer format: IDIR-2 in blue layer, IEM in green layer; conditions: for Cg /Cb+g (interimage): IEM or CIEM in green layer at 7.2×10^-3 mmol/m^2, higher ratio = more interimage, no-IEM check; for Relative Speed (green layer): IEM or CIEM in green layer, speed point +0.15 density above Dmin, normalized to check
Description: Bilayer photographic elements were prepared by coating the following layers on a cellulose triacetate film support (coverages are in g/m^2). Unless otherwise noted, all comparative and inventive compounds were dispersed in twice their own weight of N,N-dibutyllauramide: […] Layer 3 (Interlayer): gelatin at 0.64, ILS-1 at 0.11 and FD-1 at 0.11. […] Layer 5 (Overcoat): gelatin at 2.79 and 0.02 bis-vinylsulfonemethylether. […] Contrast of the elements was determined using the maximum slope between any two density points. In this test, the ratio of the contrast of the green only exposure to the contrast of the green of a blue and green exposure (Cg /Cb+g) is a measure of the interimage. A higher ratio means more inhibition originating from the blue and affecting the green record. Relative speed of the green layer was determined by measuring the speed point +0.15 density units above Dmin and normalizing to the check position.

Structure (SMILES)	% Contrast Reduction [1]	Cg /Cb+g (interimage) [2]	Relative Speed (green layer) [2]
CCCCCCCCCCCCCCCCS(=O)(=O)Nc1ccc(Cl)c(NC(=O)C(C(=O)C(C)(C)C)n2nc(C)c(C(=O)OCCCCCC)n2)c1 (stereo not drawn) [CDIR-10]	-53.8%		
CCCCCCCCCCCCCCCCS(=O)(=O)Nc1ccc(Cl)c(NC(=O)C(C(=O)C(C)(C)C)n2ncc(SCC(=O)OCCCCCC)n2)c1 (stereo not drawn) [CDIR-11]	-58.6%		
CCCCCCCCCOC(=O)C(CCSC)n1nn[nH]c1=S (stereo not drawn) [IEM-5]		1.39	0.96
CCCCCCCOC(=O)C(CCC)n1nn[nH]c1=S (stereo not drawn) [IEM-8]		2.02	0.91
O=C(O)Cn1nn[nH]c1=S [CIEM-3]		1.23	0.99
CCCCCCCCCCCCCCOc1ccccc1NC(=O)c1cc(Sc2nnnn2-c2ccccc2)c2ccccc2c1O [CDIR-6]	-75.4%		
CCCCCCCCCCC(=O)Nc1cccc(-n2nn[nH]c2=S)c1 [IEM-11]		1.29	0.99
CCCCCCCCOC(=O)CSCCn1nn[nH]c1=S [IEM-6]		1.31	0.99
CCn1nn[nH]c1=S [CIEM-5]		1.23	1.00
CCCCCCCCCCCCCCOc1ccccc1NC(=O)c1cc(Oc2ccc(CSc3nnnn3-c3ccccc3)cc2[N+](=O)[O-])c2ccccc2c1O [CDIR-4]	-77.1%		
CSCC(=O)Nc1cccc(-n2nn[nH]c2=S)c1 [CIEM-8]		1.47	0.92
CCC(C)OC(=O)C(CCSC)n1nn[nH]c1=S (stereo not drawn) [CIEM-6]		1.72	0.90
CCC(Oc1ccc(C(C)(C)CC)cc1C(C)(C)CC)C(=O)Nc1ccc(N2N=C(N3CCCC3)C(Sc3nnnn3-c3ccccc3)C2=O)cc1 (stereo not drawn) [CDIR-2]	-67.1%		
CSCC(CSC)OC(=O)CCn1nn[nH]c1=S [CIEM-7]		1.45	0.90
CCCOC(=O)Cn1nnnc1SC1C(=O)N(c2ccc(NC(=O)C(CC)Oc3ccc(C(C)(C)CC)cc3C(C)(C)CC)cc2)N=C1N1CCCC1 (stereo not drawn) [IDIR-4]	-22.6%		
CCCCCCCCCCCCCCCCS(=O)(=O)Nc1cc(CSc2nnnn2CC(=O)OCCC)ccc1Oc1cc(C(N)=O)c(O)c2ccccc12 [IDIR-1]	-34.5%		

Structure (SMILES)	% Contrast Reduction [1]	Cg /Cb+g (interimage) [2]	Relative Speed (green layer) [2]
CCCCCC(=O)Nc1cccc(-n2nn[nH]c2=S)c1 [IEM-9]		2.20	0.91
CCCCCCCCCCCCOc1ccc(C)cc1NC(=O)c1cc(Oc2ccc(CSc3nnnn3CC(=O)OCCC)cc2[N+](=O)[O-])c2ccccc2c1O [IDIR-3]	-24.5%		
O=C(CSCCn1nn[nH]c1=S)OC1CCCCC1 [IEM-3]		1.85	0.91
CCn1nn[nH]c1=S [CIEM-4]		1.22	1.00
CCCCCCCCCCCCCCOc1ccccc1NC(=O)c1cc(Sc2nnnn2CC)c2ccccc2c1O [IDIR-8]	-2.4%		
O=C(O)c1ccc(-n2nn[nH]c2=S)cc1 [CIEM-9]		1.21	1.00
CCCCCCCCCCC(Oc1ccc(S(=O)(=O)c2ccc(O)cc2)cc1)C(=O)Nc1ccc(N2N=C(C)C(n3nc(C)c(C(=O)OCCCCCC)n3)C2=O)cc1 (stereo not drawn) [CDIR-9]	-50.1%		
CCCCCCCCCCCCOC(=O)C(C)OC(=O)c1ccc(Cl)c(NC(=O)C(C(=O)Nc2cc(C(=O)OC(C)C(=O)OCCCCCCCCCCCC)ccc2Cl)n2nnc3cc(Cl)c(Cl)cc32)c1 (stereo not drawn) [IDIR-7]	-20.0%		
CCCCCCCCCCCCCCCCS(=O)(=O)Nc1ccc(Cl)c(NC(=O)C(Oc2ccc([N+](=O)[O-])cc2CN(CC)C(=O)Sc2nnnn2-c2ccccc2)C(=O)C(C)(C)C)c1 (stereo not drawn) [CDIR-7]	-63.9%		
CCCCCCCCCCCCCCCCS(=O)(=O)Nc1ccc(Cl)c(NC(=O)C(Oc2ccc([N+](=O)[O-])cc2CN(CC)C(=O)Sc2nnnn2CC(=O)OCCC)C(=O)C(C)(C)C)c1 (stereo not drawn) [IDIR-2]	-25.3%		
CCCCCCOC(=O)c1nn(C2C(=O)N(c3ccc(NC(=O)C(CC)Oc4ccc(C(C)(C)CC)cc4C(C)(C)CC)cc3)N=C2C)nc1C (stereo not drawn) [CDIR-8]	-49.2%		
S=c1[nH]nnn1-c1ccccc1 [CIEM-2]		1.44	0.91
CCCCCCCCCCCCCCOc1ccccc1NC(=O)c1cc(Oc2ccc([N+](=O)[O-])cc2CN(C(=O)Sc2nnnn2-c2ccccc2)C(C)C)c2ccccc2c1O [CDIR-3]	-75.7%		
CCCCCCCCCCCCCCOc1ccccc1NC(=O)c1cc(Oc2ccc(CSc3nnnn3-c3ccccc3)cc2[N+](=O)[O-])c2ccccc2c1O [CDIR-5]	-70.5%		
CCCCOC(=O)CSCCn1nn[nH]c1=S [IEM-7]		1.75	0.95
CCCCCCCC(=O)Nc1cccc(-n2nn[nH]c2=S)c1 [IEM-10]		1.96	0.91
